In ChEMBL document CHEMBL4376820, “Homodimeric Tobramycin Adjuvant Repurposes Novobiocin as an Effective Antibacterial Agent against Gram-Negative Bacteria” (J Med Chem, 2019):

How the values were obtained:
Pseudomonas aeruginosa [1] = assay: Potentiation of novobiocin-induced antibacterial activity against carbapenem and colistin-resistant Pseudomonas aeruginosa 91433 clinical isolate assessed as fold reduction in novobiocin MIC incubated for 18 hrs by CLSI protocol based assay relative to novobiocin MIC; format: functional
Klebsiella pneumoniae = assay: Antibacterial activity against colistin-resistant Klebsiella pneumoniae 113250 clinical isolate incubated for 18 hrs by CLSI protocol based assay; format: functional; conditions: Klebsiella pneumoniae, 113250, 18 h
Pseudomonas aeruginosa [2] = assay: Synergistic antibacterial activity against wild type Pseudomonas aeruginosa PAO1 assessed as potentiation of meropenem-induced antibacterial effect incubated for 18 hrs by checkerboard assay relative to meropenem alone; format: functional
Pseudomonas aeruginosa [3] = assay: Synergistic antibacterial activity against wild type Pseudomonas aeruginosa PAO1 assessed as potentiation of chloramphenicol-induced antibacterial effect incubated for 18 hrs by checkerboard assay; format: functional, organism-based

NC[C@H]1O[C@H](O[C@H]2[C@H](OCCCCc3cn(CCCCO[C@@H]4[C@@H](O[C@H]5O[C@H](CO)[C@@H](O)[C@H](N)[C@H]5O)[C@H](N)C[C@H](N)[C@H]4O[C@H]4O[C@H](CN)[C@@H](O)C[C@H]4N)nn3)[C@@H](O[C@H]3O[C@H](CO)[C@@H](O)[C@H](N)[C@H]3O)[C@H](N)C[C@@H]2N)[C@H](N)C[C@@H]1O.O=C(O)C(F)(F)F.O=C(O)C(F)(F)F.O=C(O)C(F)(F)F.O=C(O)C(F)(F)F.O=C(O)C(F)(F)F.O=C(O)C(F)(F)F.O=C(O)C(F)(F)F.O=C(O)C(F)(F)F.O=C(O)C(F)(F)F.O=C(O)C(F)(F)F
Ratio (Pseudomonas aeruginosa [1]): 16 | MIC (Klebsiella pneumoniae): > 128 µg/mL | fold change (FC) (Pseudomonas aeruginosa [2]): 4 - 128 | Activity (Pseudomonas aeruginosa [3]): Dose-dependent effect
